These results are taken from patent publication US20180185332A1, “Leukotriene Receptor Antagonists and Their Derivatives for Use as Antibacterial Agents” (University of East London, priority 2013, published 2018).

Values after ≈ are worked out from the molar mass of the structure shown.

The test system of series [1] is Staphylococcus aureus. Description: Minimum inhibitory concentration (MIC) in broth. It is filed as cell-based. The note with it: 10^5 cfu/mL, overnight at 37° C., no visible growth. As to the method: (§1) Zafirlukast (Sigma Aldrich, UK) was resuspended in Dimethyl Sulfoxide to a concentration of 16 mM. A minimum inhibitory concentration (MIC) was conducted using various bacterial broth solutions containing between the 0 and 4 mM zafirlukast. 10^5 cfu/mL of test organism was added to each tube before incubation overnight at 37° C. The MIC was taken to be the concentration at which no visible growth was observed. In addition, zone inhibition studies were carried out using standard techniques.
(§2) The bacterial species tested included Staphylococcus aureus, methicillin resistant Staphylococcus aureus, Enterococcus faecalis, Bacillus subtilis, Streptococcus pneumoniae, and Clostridium difficile.
(§3) MIC is well known to the skilled person and is defined as the lowest concentration of agent which prevents visible growth of the bacterial strain under investigation.

For series [2], the system named is Bacillus subtilis. Description: Minimum inhibitory concentration (MIC) in broth. The class given is cell-based. The note with it: 10^5 cfu/mL, overnight at 37° C., no visible growth. Here is the method: as §1, §2, §3
In series [3] the test system is MRSA. Description: Minimum inhibitory concentration (MIC) in broth. It is filed as cell-based, methicillin resistant Staphylococcus aureus. The note with it: Staphylococcus aureus, 10^5 cfu/mL, overnight at 37° C., no visible growth. Here is the method: as §1, §2, §3
For series [4], the system named is Mycobacterium smegmatis. The note with it: Pinault et al 2013; cited from earlier work.
The test system of series [5] is Mycobacterium tuberculosis. The note with it: Pinault et al 2013; cited from earlier work.
In series [6] the test system is B. subtilis. Description: Bactericidal activity, viable counts (percentage survival). The class given is cell-based. The note with it: 3 hrs at 37° C., FIG. 2. As to the method:
(§4) 10^5 cfu/mL of bacterial culture was incubated in the presence of various concentrations of zafirlukast for a period of 3 hrs at 37° C. At the end of this incubation, viable counts were taken and results recoded as percentage survival (as compared to the drug free control).

Series [7] deals with S. aureus. Described as above. The note with it: 3 hrs at 37° C., FIG. 2. It is filed as cell-based. Here is the method:
as §4

The subject of series [8] is E. coli. The note with it: Pinault et al 2013; cited from earlier work.
For series [9] the following is noted: in vivo, po; cited from earlier work.
Series [10] has as its target Lsr2 (Mycobacterium tuberculosis, UniProt P9WIP7). The note with it: Pinault et al 2013; cited from earlier work.

For orientation: MIC means the lowest concentration found to suppress growth. A lower MIC goes with greater potency. For the compound `CO/N=C(\C(=O)N[C@@H]1C(=O)N2C(C(=O)O)=C(CSc3nc(=O)c(=O)[nH]n3C)CS[C@H]12)c1csc(N)n1` [Ceftriaxone], the MIC is 2 µM (≈ 1.11 µg/mL) in series [1], over 29 µM in series [2] and 22 µM (≈ 12.2 µg/mL) in [3].
For `O=C(O)c1cn(C2CC2)c2cc(N3CCNCC3)c(F)cc2c1=O` [Ciprofloxacin], in that order: 3 µM (≈ 0.994 µg/mL), over 12 µM and 40 µM (≈ 13.3 µg/mL).
For `COc1cc(C(=O)NS(=O)(=O)c2ccccc2C)ccc1Cc1cn(C)c2ccc(NC(=O)OC3CCCC3)cc12` [Zafirlukast, [3-[2-Methoxy-4-(toluene-2-sulfonylaminocarbonyl)benzyl]-I-methyl-IH-indol-5-yl]carbamic acid cyclopentyl ester], in [4], the “bactericidal activity against M. smegmatis” value is listed as “exhibits bactericidal activity”. Also, the “growth of Mycobacterium smegmatis” value in [4] is “inhibits the growth”. In series [5], the “growth of Mycobacterium tuberculosis” value is “inhibits the growth”. In addition, the bactericidal activity entry in series [6] and in [7] was “bactericidal activity” each time. The values for the MIC in series [1], in [2] and in series [3] were 30 µM (≈ 17.3 µg/mL), 6 µM (≈ 3.45 µg/mL) and 6 µM (≈ 3.45 µg/mL), respectively. The “effect on the growth of E. coli” value in [8] is recorded as “no effect”. Further, in [9], the plasma half-life entry is “approximately 10 hours”. For the same compound, in [10], the “complexation of Lsr2 with DNA” value is “inhibits the complexation”.
